Activity calls are given as the source filed them. The calls are words filed in the database; no cut-off is given here. Bridge positions count the residues as written; N and C are the ends. Square brackets hold non-standard residues; d marks the D form. Peptide text beside a SMILES is read from it. ξ: configuration not given here. ξNle = CCCCC(N)C(=O)O
How the values were obtained:
[1] = system: Leishmania infantum; assay: Drug localization in Leishmania infantum MCAN/ES/89/IPZ229/1/89 promastigotes flagellum after 4 hrs by fluorescence microscopic method; assay type: ADME; conditions: in vivo
[2] = system: Leishmania infantum; assay: Drug localization in Leishmania infantum MCAN/ES/89/IPZ229/1/89 promastigotes after 24 hrs by fluorescence microscopic method; assay type: ADME; conditions: in vivo
[3] = biological target: T1, Trypanothione reductase (Leishmania infantum, UniProt A4HSF7); assay: Inhibition of recombinant Leishmania infantum TryR preincubated for 10 mins followed by T[S]2 substrate addition and measured after 1 hr in presence of NADPH
T1 sequence (A4HSF7 whole entry): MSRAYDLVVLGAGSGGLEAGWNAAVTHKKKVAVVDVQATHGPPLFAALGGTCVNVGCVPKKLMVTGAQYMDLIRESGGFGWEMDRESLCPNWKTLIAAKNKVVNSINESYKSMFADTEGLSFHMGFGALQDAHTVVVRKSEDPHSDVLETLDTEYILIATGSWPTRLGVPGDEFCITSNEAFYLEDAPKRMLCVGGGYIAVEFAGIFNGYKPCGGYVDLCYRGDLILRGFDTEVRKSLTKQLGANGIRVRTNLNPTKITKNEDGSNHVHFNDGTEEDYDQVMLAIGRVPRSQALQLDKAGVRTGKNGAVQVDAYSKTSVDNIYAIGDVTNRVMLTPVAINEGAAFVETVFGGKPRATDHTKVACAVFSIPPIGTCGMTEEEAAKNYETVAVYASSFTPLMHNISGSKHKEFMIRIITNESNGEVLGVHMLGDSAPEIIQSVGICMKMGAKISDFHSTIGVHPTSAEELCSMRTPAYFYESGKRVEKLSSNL

[4] = biological target: T1, Trypanothione reductase; assay: Inhibition of recombinant His/FLAG-tagged Leishmania infantum TryR dimerization assessed as dimer disruption after 1 hr by ELISA
[5] = Stability assessed as Tritirachium album proteinase K- mediated compound degradation by measuring half life at 100 uM by HPLC method; assay type: ADME; conditions: parengyodontium album
[6] = system: Leishmania infantum; assay: Antileishmanial activity against Leishmania infantum axenic amastigotes assessed as induction of cell death at 25 uM after 24 hrs by propidium iodide staining based flow cytometry; assay type: functional
[7] = system: Leishmania infantum; assay: Antileishmanial activity against Leishmania infantum MCAN/ES/89/IPZ229/1/89 promastigotes assessed as induction of cell death at 25 uM after 24 hrs by propidium iodide staining based flow cytometry; assay type: functional

CCCCC(NC(=O)[C@H](CCCCN)NC(=O)C(CCCC)NC(=O)[C@H](CO)NC(=O)[C@@H](NC(=O)CNC(=O)[C@@H](NC(=O)[C@H](CO)NC(=O)[C@H](CCC(N)=O)NC(=O)[C@@H](NC(=O)[C@@H](NC(=O)[C@H](CCCCN)NC(=O)[C@@H]1CCCN1C(=O)COCCOCCNC(=S)Nc1ccc(-c2c3ccc(=O)cc-3oc3cc(O)ccc23)c(C(=O)O)c1)[C@@H](C)CC)[C@@H](C)CC)C(C)C)[C@@H](C)CC)C(=O)N[C@H](CCCNC(=N)N)NC(=O)[C@H](CCCNC(=N)N)NC(=O)[C@H](CCCNC(=N)N)NC(=O)[C@H](CCCNC(=N)N)NC(=O)[C@H](CCCNC(=N)N)NC(=O)[C@H](CCCNC(=N)N)NC(=O)[C@H](CCCNC(=N)N)NC(=O)[C@H](CCCNC(=N)N)NC(=O)[C@@H](N)CCCNC(=N)N (stereo partly specified)
Drug uptake [1]: Active | Drug uptake [2]: Active

CCCCC(NC(=O)[C@H](CCCCN)NC(=O)C(CCCC)NC(=O)[C@H](CO)NC(=O)[C@@H](NC(=O)[C@@H]1CCCCNC(=O)CC[C@H](NC(=O)[C@@H](NC(=O)[C@H](CCCCN)NC(=O)[C@@H]2CCCN2C(C)=O)[C@@H](C)CC)C(=O)N[C@@H](CCC(N)=O)C(=O)NC(CO)C(=O)N[C@@H](C(C)C)C(=O)N1)[C@@H](C)CC)C(N)=O (single isomer, unassigned)
IC50 [3]: 5.3 µM | IC50 [4]: 14.4 µM | half-life at 100 µM [5]: 64 min | Activity [6]: inactive | Activity [7]: inactive

CCCCC(NC(=O)[C@H](CCCCN)NC(=O)C(CCCC)NC(=O)[C@H](CO)NC(=O)[C@@H](NC(=O)CNC(=O)[C@@H]1CCCCNC(=O)CC[C@H](NC(=O)[C@H](CCCCN)NC(=O)[C@@H]2CCCN2C(C)=O)C(=O)N[C@@H]([C@@H](C)CC)C(=O)N[C@@H](CCC(N)=O)C(=O)N[C@@H](CO)C(=O)N1)[C@@H](C)CC)C(N)=O (stereo partly specified) (Ac-PKEIQSKGIS[ξNle]K[ξNle]-NH2; lactam 3-7)
IC50 [3]: 0.9 µM | IC50 [4]: 9.9 µM | half-life at 100 µM [5]: 52 min | Activity [6]: inactive | Activity [7]: inactive

CCCCC(NC(=O)[C@H](CCCCN)NC(=O)C(CCCC)NC(=O)[C@H](CO)NC(=O)[C@@H](NC(=O)CNC(=O)[C@@H](NC(=O)[C@H](CO)NC(=O)[C@H](CCC(N)=O)NC(=O)[C@@H](NC(=O)[C@@H](NC(=O)[C@H](CCCCN)NC(=O)[C@@H]1CCCN1C(C)=O)[C@@H](C)CC)[C@@H](C)CC)C(C)C)[C@@H](C)CC)C(N)=O (stereo partly specified)
IC50 [3]: 1.2 µM | IC50 [4]: 13.5 µM | half-life at 100 µM [5]: 23 min | Activity [6]: inactive | Activity [7]: inactive

CC[C@H](C)[C@H](NC(=O)CNC(=O)[C@@H](NC(=O)[C@H](CO)NC(=O)[C@H](CCC(N)=O)NC(=O)[C@@H](NC(=O)[C@@H](NC(=O)[C@H](CCCCN)NC(=O)[C@@H]1CCCN1C(C)=O)[C@@H](C)CC)[C@@H](C)CC)C(C)C)C(N)=O
IC50 [3]: 3.7 µM | IC50 [4]: 20.8 µM | Activity [6]: inactive | Activity [7]: inactive

— ChEMBL document CHEMBL4052619, “First example of peptides targeting the dimer interface of Leishmania infantum trypanothione reductase with potent in vitro antileishmanial activity” (Eur J Med Chem, 2017)
